From patent publication US9745283B2, “Uracil derivatives as AXL and c-MET kinase inhibitors” (priority 2011, dated 2017)
Values belong to the molecule of their own block, whether it stands above or below them.

Experiments:
[1] = target: recombinant human baculovirus-expressed cMET (Homo sapiens (Human), UniProt P08581); assay: C-MET Kinase Assay (HTRF KinEASE); type: biochemical; conditions: average of two or more determinations; read-out: c-MET IC50
How it was run: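 HTRF KinEASE format with recombinant human baculovirus-expressed cMET at 8 ng/mL, biotinylated peptide at 0.1 μM and ATP at 0.02 μM. IC50 came from percent control activity versus log concentration, fitted by nonlinear regression to a variable-slope sigmoidal equation with bottom fixed at 0 and top at 100.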

[2] = target: recombinant human baculovirus-expressed AXL (Homo sapiens (Human), UniProt P30530); assay: AXL Kinase Assay (HTRF KinEASE); type: biochemical; conditions: average of two or more determinations
Experimental: The ability of compounds to inhibit the kinase activity of recombinant human baculovirus-expressed AXL was measured by homogeneous TRF (HTRF) using Cisbio's KinEASE™ assay system in white 384-well Optiplates. Assay buffer contained 1 mM DTT, 2 mM MnCl2, 2% DMSO, […] supplement enzymatic buffer, and 1× enzymatic buffer. A 2× concentration of tyrosine kinase (TK) substrate-biotin/ATP mixture made in assay buffer was added to plates at 10 μL/well using the Multidrop Combi (Thermo Fisher Scientific, Waltham, Mass.). […] Compounds (100 nL), diluted in 100% DMSO on the Biomek FX, (Beckman Coulter, Inc., Brea, Calif.), were transferred to the assay plates using the Biomek FX pintool (2.5% final DMSO in assay). […] Plates were sealed, briefly shaken and incubated at 25° C. for 30 minutes. […] Plates were sealed, briefly shaken and incubated at 25° C. for 1 hour.
Inhibition curves for compounds were generated by plotting percent control activity versus log 10 of the concentration of compound. IC50 values were calculated by nonlinear regression using the sigmoidal dose-response (variable slope) equation in GraphPad Prism as follows: y=bottom+(top−bottom)/(1+10(log IC50−x)*Hill Slope) where y is the % kinase activity at a given concentration of compound, x is the logarithm of the concentration of compound, bottom is the % of control kinase activity at the highest compound concentration tested, and top is the % of control kinase activity at the lowest compound concentration examined. The values for bottom and top were fixed at 0 and 100, respectively.

Compound: CCn1cc(C(=O)Nc2ccc(Oc3ccnc4cc(OC)c(OC)cc34)c(C(F)(F)F)c2)c(=O)n(-c2ccc(F)cc2)c1=O [Example 159, 1-Ethyl-3-(4-fluoro-phenyl)-2,4-dioxo-1,2,3,4-tetrahydro-pyrimidine-5-carboxylic acid [4-(6,7-dimethoxy-quinolin-4-yloxy)-3-trifluoromethyl-phenyl]-amide]
IC50 [1]: 10 to 100 nM
IC50 [2]: < 10 nM

Compound: CCn1cc(C(=O)Nc2ccc(Oc3ccnc4cc(OC)c(OC)cc34)cc2F)c(=O)n(-c2ccc(F)cc2)c1=O [Example 87, 1-Ethyl-3-(4-fluoro-phenyl)-2,4-dioxo-1,2,3,4-tetrahydro-pyrimidine-5-carboxylic acid [4-(6,7-dimethoxy-quinolin-4-yloxy)-2-fluoro-phenyl]-amide]
IC50 [1]: 10 to 100 nM
IC50 [2]: < 10 nM

Compound: COc1cc2nccc(Oc3ccc(NC(=O)c4nn(C)c(=O)n(CC(C)C)c4=O)cc3F)c2cc1OC [Example 127, 4-Isobutyl-2-methyl-3,5-dioxo-2,3,4,5-tetrahydro-[1,2,4]triazine-6-carboxylic acid [4-(6,7-dimethoxy-quinolin-4-yloxy)-3-fluoro-phenyl]-amide]
IC50 [1]: 10 to 100 nM
IC50 [2]: < 10 nM

Compound: C#CCn1nc(C(=O)Nc2ccc(Oc3ccnc4cc(OC)c(OC)cc34)c(F)c2)c(=O)n(-c2ccc(F)cc2)c1=O [Example 113, 4-(4-Fluoro-phenyl)-3,5-dioxo-2-prop-2-ynyl-2,3,4,5-tetrahydro-[1,2,4]triazine-6-carboxylic acid [4-(6,7-dimethoxy-quinolin-4-yloxy)-3-fluoro-phenyl]-amide]
IC50 [1]: < 10 nM
IC50 [2]: < 10 nM

Compound: COc1cc2nccc(C(O)c3ccc(NC(=O)c4cn(C)c(=O)n(-c5ccc(F)cc5)c4=O)cc3F)c2cc1OC (centres unmarked) [Example 57, 3-(4-fluoro-phenyl)-1-methyl-2,4-dioxo-1,2,3,4-tetrahydro-pyrimidine-5-carboxylic acid {4-[(6,7-dimethoxy-quinolin-4-yl)-hydroxy-methyl]-3-fluoro-phenyl}-amide]
IC50 [1]: 101 to 1000 nM
IC50 [2]: < 10 nM

Compound: COc1cc2nccc(Oc3ccc(NC(=O)c4c[nH]c(=O)n(-c5ccc(F)cc5)c4=O)cc3OC)c2cc1OC [Example 150, 3-(4-Fluoro-phenyl)-2,4-dioxo-1,2,3,4-tetrahydro-pyrimidine-5-carboxylic acid [4-(6,7-dimethoxy-quinolin-4-yloxy)-3-methoxy-phenyl]-amide]
IC50 [1]: 10 to 100 nM
IC50 [2]: < 10 nM

Compound: CCCn1cc(C(=O)Nc2ccc(Oc3ccnc4cc(OC)c(OC)cc34)c(F)c2)c(=O)n(-c2ccc(F)cc2)c1=O [Example 11, 3-(4-Fluorophenyl)-2,4-dioxo-1-propyl-1,2,3,4-tetrahydropyrimidine-5-carboxylic acid [4-(6,7-dimethoxyquinolin-4-yloxy)-3-fluorophenyl]-amide]
IC50 [1]: 10 to 100 nM
IC50 [2]: < 10 nM

Compound: COc1cc2nccc(Oc3ccc(NC(=O)c4n[nH]c(=O)n(-c5ccc(F)cc5)c4=O)cc3F)c2cc1OC [Example 107, 4-(4-Fluoro-phenyl)-3,5-dioxo-2,3,4,5-tetrahydro-[1,2,4]triazine-6-carboxylic acid [4-(6,7-dimethoxy-quinolin-4-yloxy)-3-fluoro-phenyl]-amide]
IC50 [1]: < 10 nM
IC50 [2]: < 10 nM

Compound: COc1cc2nccc(Oc3ccc(NC(=O)c4nn(CC(C)=O)c(=O)n(-c5ccc(F)cc5)c4=O)cc3F)c2cc1OC [Example 112, 4-(4-Fluorophenyl)-3,5-dioxo-2-(2-oxo-propyl)-2,3,4,5-tetrahydro-[1,2,4]triazine-6-carboxylic acid [4-(6,7-dimethoxyquinolin-4-yloxy)-3-fluorophenyl]-amide]
IC50 [1]: 10 to 100 nM
IC50 [2]: < 10 nM

Compound: COc1cc2nccc(Oc3ccc(NC(=O)c4cn(Cc5ccccc5)c(=O)n(-c5ccc(F)cc5)c4=O)cc3F)c2cc1OC [Example 77, 1-Benzyl-3-(4-fluoro-phenyl)-2,4-dioxo-1,2,3,4-tetrahydro-pyrimidine-5-carboxylic acid [4-(6,7-dimethoxy-quinolin-4-yloxy)-3-fluoro-phenyl]-amide]
IC50 [1]: 10 to 100 nM
IC50 [2]: < 10 nM

Second part, the molecule after the results:

IC50 [1]: 10 to 100 nM
IC50 [2]: < 10 nM
Compound: COc1cc2nccc(Oc3ccc(NC(=O)c4cn(C5CCC5)c(=O)n(-c5ccc(F)cc5)c4=O)cc3F)c2cc1OC [Example 29, 1-Cyclobutyl-3-(4-fluorophenyl)-2,4-dioxo-1,2,3,4-tetrahydropyrimidine-5-carboxylic acid [4-(6,7-dimethoxyquinolin-4-yloxy)-3-fluorophenyl]-amide]

IC50 [1]: 10 to 100 nM
IC50 [2]: < 10 nM
Compound: COc1cc2nccc(Oc3ccc(NC(=O)c4cn(CCc5ccccc5F)c(=O)n(-c5ccc(F)cc5)c4=O)cc3F)c2cc1OC [Example 78, 3-(4-Fluoro-phenyl)-1-[2-(2-fluoro-phenyl)-ethyl]-2,4-dioxo-1,2,3,4-tetrahydro-pyrimidine-5-carboxylic acid [4-(6,7-dimethoxy-quinolin-4-yloxy)-3-fluoro-phenyl]-amide]

IC50 [1]: < 10 nM
IC50 [2]: < 10 nM
Compound: COc1cc2nccc(Oc3ccc(NC(=O)c4c[nH]c(=O)n(-c5ccc(F)cc5)c4=O)cc3F)c2cc1OC [Example 17, 3-(4-Fluorophenyl)-2,4-dioxo-1,2,3,4-tetrahydropyrimidine-5-carboxylic acid [4-(6,7-dimethoxyquinolin-4-yloxy)-3-fluorophenyl]-amide]

IC50 [1]: 10 to 100 nM
IC50 [2]: < 10 nM
Compound: CCn1cc(C(=O)Nc2ccc(Oc3ccnc4cc(OC)c(OC)cc34)c(F)c2)c(=O)n(-c2ccccc2)c1=O [Example 100, 1-Ethyl-2,4-dioxo-3-phenyl-1,2,3,4-tetrahydro-pyrimidine-5-carboxylic acid [4-(6,7-dimethoxy-quinolin-4-yloxy)-3-fluoro-phenyl]-amide]

IC50 [1]: < 10 nM
IC50 [2]: < 10 nM
Compound: COc1cc2nccc(Oc3ccc(NC(=O)c4cn(CC(=O)O)c(=O)n(-c5ccc(F)cc5)c4=O)cc3F)c2cc1OC [Example 71, [5-[4-(6,7-Dimethoxyquinolin-4-yloxy)-3-fluorophenylcarbamoyl]-3-(4-fluorophenyl)-2,4-dioxo-3,4-dihydro-2H-pyrimidin-1-yl]-acetic acid]

IC50 [1]: < 10 nM
IC50 [2]: < 10 nM
Compound: CCn1cc(C(=O)Nc2ccc(Oc3ccnc4cc(OC)c(OC)cc34)cc2OC)c(=O)n(-c2ccc(F)cc2)c1=O [Example 143, 1-Ethyl-3-(4-fluorophenyl)-2,4-dioxo-1,2,3,4-tetrahydropyrimidine-5-carboxylic acid [4-(6,7-dimethoxy-quinolin-4-yloxy)-2-methoxyphenyl]-amide]

IC50 [1]: < 10 nM
IC50 [2]: < 10 nM
Compound: CCn1cc(C(=O)Nc2ccc(Oc3ccnc4cc(OC)c(OC)cc34)c(F)c2)c(=O)n(-c2ccc(F)cc2)c1=O [Example 1, 1-Ethyl-3-(4-fluorophenyl)-2,4-dioxo-1,2,3,4-tetrahydropyrimidine-5-carboxylicacid [4-(6,7-dimethoxyquinolin-4-yloxy)-3-fluorophenyl]amide]

IC50 [1]: < 10 nM
IC50 [2]: < 10 nM
Compound: C=CCn1cc(C(=O)Nc2ccc(Oc3ccnc4cc(OC)c(OC)cc34)c(F)c2)c(=O)n(-c2ccc(F)cc2)c1=O [Example 9, 1-Allyl-3-(4-fluorophenyl)-2,4-dioxo-1,2,3,4-tetrahydropyrimidine-5-carboxylic acid [4-(6,7-dimethoxyquinolin-4-yloxy)-3-fluorophenyl]-amide]

IC50 [1]: < 10 nM
IC50 [2]: < 10 nM
Compound: COc1cc2nccc(Oc3ccc(NC(=O)c4cn(C)c(=O)n(-c5ccc(F)cc5)c4=O)c(F)c3F)c2cc1OC [Example 146, 1-Methyl-3-(4-fluorophenyl)-2,4-dioxo-1,2,3,4-tetrahydro-pyrimidine-5-carboxylic acid [4-(6,7-dimethoxy-quinolin-4-yloxy)-2,3-difluoro-phenyl]-amide]

IC50 [1]: < 10 nM
IC50 [2]: < 10 nM
Compound: COc1cc2nccc(Oc3ccc(NC(=O)c4cn(CCCO)c(=O)n(-c5ccc(F)cc5)c4=O)cc3F)c2cc1OC [Example 50, 3-(4-Fluorophenyl)-1-(3-hydroxypropyl)-2,4-dioxo-1,2,3,4-tetrahydropyrimidine-5-carboxylic acid [4-(6,7-dimethoxyquinolin-4-yloxy)-3-fluorophenyl]-amide]

IC50 [1]: < 10 nM
IC50 [2]: < 10 nM
Compound: COc1cc2nccc(Oc3ccc(NC(=O)c4cn(CCF)c(=O)n(-c5ccc(F)cc5)c4=O)cc3F)c2cc1OC [Example 69, 1-(2-Fluoro-ethyl)-3-(4-fluoro-phenyl)-2,4-dioxo-1,2,3,4-tetrahydro-pyrimidine-5-carboxylic acid [4-(6,7-dimethoxy-quinolin-4-yloxy)-3-fluoro-phenyl]-amide]

IC50 [1]: < 10 nM
IC50 [2]: < 10 nM
Compound: COc1cc2nccc(Oc3ccc(NC(=O)c4nn(CCO)c(=O)n(-c5ccc(F)cc5)c4=O)cc3F)c2cc1OC [Example 108, 4-(4-Fluorophenyl)-2-(2-hydroxyethyl)-3,5-dioxo-2,3,4,5-tetrahydro-[1,2,4]triazine-6-carboxylic acid [4-(6,7-dimethoxyquinolin-4-yloxy)-3-fluorophenyl]-amide]
